Test results taken from ChEMBL document CHEMBL3045642, “Synthesis of biologically active drimanes and homodrimanes from ()-sclareol” (Tetrahedron, 1995).
≈ marks a conversion by molar mass, not a printed value.

Tests used:
[1] = system: Spodoptera littoralis; test: Antifeedant activity against Spodoptera littoralis at 10 ppm; type: functional
[2] = system: Spodoptera littoralis; test: Antifeedant activity against Spodoptera littoralis at 100 ppm; type: functional
[3] = system: Cryptococcus neoformans; test: Antifungal activity against Cryptococcus neoformans CECT 1075 after 48 hr; type: functional; conditions: CECT 1075, 48 h
[4] = system: Candida albicans; test: Antifungal activity against Candida albicans CECT 1394 after 48 hr; type: functional; conditions: CECT 1394, 48 h
[5] = system: Saccharomyces cerevisiae; test: Antifungal activity against Saccharomyces cerevisiae S3 after 48 hr; type: functional; conditions: S3, 48 h
[6] = system: Pseudomonas aeruginosa; test: Antibacterial activity against Pseudomonas aeruginosa after 24 hr; type: functional
[7] = system: Salmonella typhimurium; test: Antibacterial activity against Salmonella enterica subsp. enterica serovar Typhimurium after 24 hr; type: functional
[8] = system: Proteus; test: Antibacterial activity against Proteus after 24 hr; type: functional
[9] = system: Staphylococcus aureus; test: Antibacterial activity against Staphylococcus aureus ATCC 8 after 24 hr; type: functional; conditions: ATCC 8, 24 h
[10] = system: Enterococcus faecalis; test: Antibacterial activity against Enterococcus faecalis OGIX after 24 hr; type: functional
[11] = system: Bacillus subtilis; test: Antibacterial activity against Bacillus subtilis CECT 397 after 24 hr; type: functional; conditions: CECT 397, 24 h
[12] = system: HT-29; test: Cytotoxicity against Homo sapiens (human) HT-29 cells; type: functional, cell-based
[13] = system: SK-MEL-28; test: Cytotoxicity against Homo sapiens (human) SK-MEL-28 cells; type: functional, cell-based
[14] = system: P388; test: Cytotoxicity against […] cells; type: functional, cell-based; conditions: Mus musculus
[15] = system: A549; test: Cytotoxicity against Homo sapiens (human) A549 cells; type: functional, cell-based
[16] = system: Spodoptera littoralis; test: Antifeedant activity against Spodoptera littoralis; type: functional, organism-based

SMILES	AFI [1] [%]	AFI [2] [%]	MIC [3] [µg/mL]	MIC [4] [µg/mL]	MIC [5] [µg/mL]	MIC [6] [µg/mL]	MIC [7] [µg/mL]	MIC [8] [µg/mL]	MIC [9] [µg/mL]	MIC [10] [µg/mL]	MIC [11] [µg/mL]	IC50 [12] [µg/mL]	IC50 [13] [µg/mL]	IC50 [14] [µg/mL]	IC50 [15] [µg/mL]	Activity [16]
C=C1C(=O)C[C@H]2C(C)(C)CCC[C@]2(C)[C@H]1C=O	40.2	18.5														
CC1(C)CCC[C@]2(C)[C@@H](CC=O)C(C=O)=CC[C@@H]12	-17.9	51.7	> 100	> 100	100 (≈ 403 µM)	100 (≈ 403 µM)	> 100	> 100	100 (≈ 403 µM)	> 100	100 (≈ 403 µM)	5 (≈ 20.1 µM)	5 (≈ 20.1 µM)	2.5 (≈ 10.1 µM)	2.5 (≈ 10.1 µM)	Dose-dependent effect
C=C1C(=O)C[C@H]2C(C)(C)CCC[C@]2(C)[C@H]1CC=O	-10	43.7	> 100	> 100	> 100	100 (≈ 403 µM)	> 100	> 100	> 100	> 100	> 100	2.5 (≈ 10.1 µM)	2.5 (≈ 10.1 µM)	1.2 (≈ 4.83 µM)	1.2 (≈ 4.83 µM)	Dose-dependent effect
CC1(C)CCC[C@]2(C)[C@@H](C=O)C(C=O)=CC[C@@H]12 [POLYGODIAL]	24.9	7.4	> 100	> 100	100 (≈ 427 µM)	> 100	> 100	> 100	> 100	> 100	> 100		2.5 (≈ 10.7 µM)			
